Usually IC50 stands for the concentration that gives 50% inhibition.

The source of these data is patent US5925769A, “Acetylenic 1,5-diarylpyrazoles as antiinflammatory agents” (Ortho Pharmaceutical, Corp., priority 1998, dated 1999).

In one assay the target is T1, 5-LO (Rattus norvegicus, UniProt P12527).
T1 construct: the supernatant was saved as the source of enzymes; endogenous in cells; host or cells: RBL-1 (rat basophilic leukemia) cells
T1 sequence (P12527 1-673): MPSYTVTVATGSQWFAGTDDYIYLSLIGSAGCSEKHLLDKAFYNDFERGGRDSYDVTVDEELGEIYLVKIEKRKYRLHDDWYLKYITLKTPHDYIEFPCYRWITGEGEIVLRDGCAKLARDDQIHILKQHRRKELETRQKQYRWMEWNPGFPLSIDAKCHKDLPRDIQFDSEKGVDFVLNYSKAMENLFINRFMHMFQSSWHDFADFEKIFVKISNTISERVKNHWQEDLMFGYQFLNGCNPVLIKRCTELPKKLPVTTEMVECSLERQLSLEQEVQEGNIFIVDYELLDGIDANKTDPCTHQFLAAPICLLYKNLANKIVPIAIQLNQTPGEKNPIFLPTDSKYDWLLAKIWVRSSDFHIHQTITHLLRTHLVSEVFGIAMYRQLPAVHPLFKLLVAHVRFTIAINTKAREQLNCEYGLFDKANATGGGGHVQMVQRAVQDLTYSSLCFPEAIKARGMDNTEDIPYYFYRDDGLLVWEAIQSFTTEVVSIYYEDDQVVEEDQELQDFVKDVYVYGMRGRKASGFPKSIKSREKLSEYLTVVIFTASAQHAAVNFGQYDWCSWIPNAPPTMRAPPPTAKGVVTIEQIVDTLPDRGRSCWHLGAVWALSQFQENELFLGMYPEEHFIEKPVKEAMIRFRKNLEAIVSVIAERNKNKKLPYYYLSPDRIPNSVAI
Briefly: Procedure III: 5-LO (5-HETE) in intact RBL-1 cells. The assay is classed as cell-based. Conditions: calcium ionophore A 23187, read-out: Proc. III 5-LO IC50. The method, boiled down:
(§1)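 Intact RBL-1 cells at 1×10^5 cells/mL in HBSS were preincubated with vehicle or drug, pelleted and resuspended, then given 1-^14C-AA. 5-HETE (5-LO) and PgD2 (CO) were separated by TLC after acidification/extraction and quantified by radioimaging; IC50 from regression curve fit.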

Another assay has as its target T2, CO (Rattus norvegicus, UniProt Q63921).
T2 construct: the supernatant was saved as the source of enzymes; endogenous in cells; host or cells: RBL-1 (rat basophilic leukemia) cells
T2 sequence (Q63921 27-602): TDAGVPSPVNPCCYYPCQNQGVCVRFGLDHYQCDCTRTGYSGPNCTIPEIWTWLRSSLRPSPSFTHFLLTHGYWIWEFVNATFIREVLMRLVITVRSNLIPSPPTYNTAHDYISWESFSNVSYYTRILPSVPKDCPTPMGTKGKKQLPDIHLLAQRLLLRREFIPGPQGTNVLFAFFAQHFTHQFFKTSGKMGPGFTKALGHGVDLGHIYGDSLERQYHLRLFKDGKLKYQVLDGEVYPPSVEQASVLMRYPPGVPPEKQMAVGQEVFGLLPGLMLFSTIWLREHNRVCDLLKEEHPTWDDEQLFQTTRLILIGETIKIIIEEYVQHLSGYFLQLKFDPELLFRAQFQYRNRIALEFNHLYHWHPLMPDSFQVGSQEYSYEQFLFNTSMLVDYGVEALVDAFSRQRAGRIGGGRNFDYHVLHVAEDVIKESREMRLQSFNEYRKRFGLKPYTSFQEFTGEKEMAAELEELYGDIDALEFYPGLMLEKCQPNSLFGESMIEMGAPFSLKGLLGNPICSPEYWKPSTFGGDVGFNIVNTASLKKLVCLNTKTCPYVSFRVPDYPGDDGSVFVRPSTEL
Put plainly: Procedure III: CO (PgD2) in intact RBL-1 cells. Conditions: calcium ionophore A 23187, read-out: Proc. III CO IC50. The assay is classed as cell-based. The method, boiled down: as §1

Assay [1] deals with T3, Sheep seminal vesicle (SSV) cyclooxygenase (Ovis aries, UniProt P05979).
T3 construct: Sheep seminal vesicle (SSV) cyclooxygenase (95% pure); purchased Biomol (Plymouth Meeting, PA); host or cells: sheep seminal vesicle
T3 sequence (P05979 25-600): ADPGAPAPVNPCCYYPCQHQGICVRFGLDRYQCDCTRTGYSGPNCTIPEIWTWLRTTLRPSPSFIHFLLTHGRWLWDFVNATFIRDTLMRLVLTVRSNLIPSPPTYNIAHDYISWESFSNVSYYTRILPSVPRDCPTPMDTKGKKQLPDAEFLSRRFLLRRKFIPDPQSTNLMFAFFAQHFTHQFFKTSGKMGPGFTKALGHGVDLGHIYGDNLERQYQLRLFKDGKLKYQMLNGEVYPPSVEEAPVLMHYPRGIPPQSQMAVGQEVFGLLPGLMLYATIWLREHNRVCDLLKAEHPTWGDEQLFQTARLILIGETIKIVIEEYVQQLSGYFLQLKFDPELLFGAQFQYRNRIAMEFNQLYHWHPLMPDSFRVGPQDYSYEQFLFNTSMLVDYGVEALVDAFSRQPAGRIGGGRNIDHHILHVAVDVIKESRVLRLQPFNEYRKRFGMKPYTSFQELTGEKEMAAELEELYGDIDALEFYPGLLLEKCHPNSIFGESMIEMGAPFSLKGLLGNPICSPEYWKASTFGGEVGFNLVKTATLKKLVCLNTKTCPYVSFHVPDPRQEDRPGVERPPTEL
Put plainly: Procedure I: inhibition of sheep seminal vesicle (SSV) cyclooxygenase. Conditions: SSV cyclooxygenase; read-out: Proc. I IC50. The assay is classed as biochemical. Summed up: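 Turnover of [1-14C]-arachidonic acid by SSV cyclooxygenase ran 20 min after a 5 min preincubation at 37° C with test compound. Products (PGD2, PGE2, etc.) were extracted, resolved by TLC and quantified by radio-imaging; inhibition came from comparing curve areas with and without compound.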

Turning to `COc1ccc(-n2nc(C#CCN(O)C(N)=O)cc2-c2ccc(C)cc2)cc1` [Cpd 1, N-Hydroxy-N-(1(1-(4-methoxyphenyl)-5-(4-methylphenyl)pyrazol-3-yl)-1-propyn-3-yl)urea], the values for the IC50 (on 5-LO; at CO; in assay [1]) were 4.7 µM, 12.1 µM and 1020 nM, respectively.
